Source: patent US20230248775A1, “GENETIC MODIFICATION OF MAMMALIAN CELLS TO CONFER RESISTANCE TO CSF1R ANTAGONISTS” (THE REGENTS OF THE UNIVERSITY OF CALIFORNIA, priority 2021, published 2023)
“Also recorded” adds a separate entry of the source.

Tests used:
G795C iPSC-microglia = assay: Cell death assay (fluorogenic caspase 3/7, IncuCyte time-lapse imaging), G795C microglia; format: cell-based, human; conditions: 250 nM, 500 nM, 1 μm, 24 hours, compared to DMSO control
From the text: (§1) FIGS. 4A, 4B, 4C, 4D, and 4E show human stem cell-derived microglia are also susceptible to and killed by CSF1R inhibition in vitro. […] Images captured on Incucyte S3 live-cell imager. […] Images captured on Incucyte S3 live-cell imager. […] Images captured on Incucyte S3 live-cell imager. […] Images captured on Incucyte S3 live-cell imager. […] For all panels, n=4 images in six independent wells were quantified. Data represented as mean values±SEM.
(§2) Strategy 1: A crystal structure of the CSF1R receptor bound to an antagonist (PMID: 31434879) to predict amino acid substitutions that may sterically hinder the binding of CSF1R antagonists while not impairing the normal binding of ATP into the same binding pocket. The crystal structure of PLX5622 bound to human CSF1R was obtained and the ATP binding pocket was examined (FIG. 7A). Through molecular modeling single amino acid changes were predicted that would likely impair the binding of PLX5622 or PLX3397 or other CSF1R antagonists while not disrupting normal ATP binding to CSF1R. […] Other mutations could also be explored to prevent binding (FIG. 7D). […] The resulting iPSCs were then differentiated into microglia and exposed to varying concentrations of either PLX3397 or PLX5622. To detect microglial cell death (apoptosis) a caspase-3/7 fluorogenic reporter was used. […] FIG. 4F provided representative images of cell density (phase-contrast microscopy, 1st column) and fluorescent Caspase-3/7 activity (2nd column) across each dose of PLX3397 and PLX5622.
(§3) Resistance to each of the CSF1R inhibitors tested was quantified using a fluorogenic caspase 3/7 detector (Essen BioScience) and time-lapse imaging over 24 hours.
(§4) Cell death assay: iPS-microglia were plated at 70K cells per 96-well plate (6 wells per line per condition). At time 0, all microglia were treated with IncuCyte Caspase-3/7 Green Apoptosis Assay Reagent 1:1000. Cells were maintained in the described medium: fresh complete medium+0.1% DMSO, complete media+250 nM PLX3397, complete medium+500 nM PLX3397, complete medium+[…] PLX3397, complete medium+250 nM PLX5622, complete medium+500 nM PLX5622, complete medium +[…] PLX5622, complete medium+250 nM Edicotinib, complete medium+500 nM Edicotinib, complete medium +1 μm Edicotinib, complete medium+250 nM BLZ945, complete medium+500 nM BLZ945, complete medium +1 μm BLZ945. Four 20× images per well were collected every hour for 24 hours. Using IncuCyte 2020B software, image masks for phase confluence (visually gated out apoptotic cells) as well as caspase 3/7 signal (green) were generated. Graphs display caspase normalized to phase confluence, completed with 3 lines: WT, G795A, G795C (see FIGS. 4A, 4B, 4C, 4D, and 4E).

[1] = system: wild-type (WT) iPSC-microglia; assay: LIVE/DEAD two-color viability/cytotoxicity, WT microglia; format: cell-based, human; conditions: 500 nM or 1 uM, 24 hours
Protocol: (§5) FIGS. 5A and 5B show G795A iPSC-derived microglia are resistant to CSF1R antagonist-induced cell death. As cells can die from processes other than caspase-mediated apoptosis, it is important to determine whether the G795A mutation provides a more broad-based resistance to any form of cell death induced by CSF1R antagonists, Therefore, G795A and wild-type (WT) iPSC-microglia were treated for 24 hours with either 500 nM (FIG, 5A) or 1 uM (FIG. 5B) of DMSO vehicle control or one of four CSF1R antagonists; PLX3397, PLX5622, Edicotinib, and BLZ945. The percent of live versus dead cells was then quantified using a two-color viability/cytotoxicity approach (Thermo L3224; LIVE/DEAD™ Viability/Cytotoxicity Kit). Very few dead microglia are observed 24 hours after treatment with DMSO. […] Live cells are denoted with a circle, […]

G795A iPSC-microglia [2] = assay: Cell death assay (fluorogenic caspase 3/7, IncuCyte time-lapse imaging), G795A microglia; format: cell-based, human; conditions: 250 nM, 500 nM, 1 μm, 24 hours, compared to DMSO control
From the text: as §1, §2, §3, §4

[3] = system: wild-type (WT) unedited human iPSC-microglia; assay: Cell death assay (fluorogenic caspase 3/7, IncuCyte time-lapse imaging), WT microglia; format: cell-based; conditions: 250 nM, 500 nM, 1 μm, 24 hours, compared to DMSO control
From the text: as §1, §2, §3, §4

G795A iPSC-microglia [4] = assay: LIVE/DEAD two-color viability/cytotoxicity, G795A microglia; format: cell-based, human; conditions: 500 nM or 1 uM, 24 hours
Protocol: as §5

wild-type human xMGs = assay: PLX3397 chow treatment of xenotransplanted mice, wild-type xMGs (IBA-1/Ku80/Ki67 immunohistochemistry); format: in vivo, mouse; conditions: 600 mg/kg of PLX3397 in rodent chow ad libitum, 4 weeks
From the text: (§6) FIGS. 11A, 11B, 11C, 11D, 11E, 11F, 11G, 11H, 11I, and 11J show G795A iPSC-derived microglia are resistant to CSF1R […] treatment and enable robust engraftment of human microglia within the adult mammalian brain. Xenotransplantation-compatible mice received bilateral stereotactic intrahippocampal injections of 500,000 iPSC-derived human microglia (xMGs) at 2-months of age. Mice received xMGs differentiated from either a homozygous CSF1R-resistant G795A human iPSC line or an isogenic unmodified Wild-Type human i PSC. At fours of age, mice were treated with 600 mg/kg of PLX3397 in rodent chow ad libitum for 4 weeks duration. Mice were then sacrificed, and half-brains were examined by fluorescent immunohistochemistry and confocal microscopy.

G795A xMGs = assay: PLX3397 chow treatment of xenotransplanted mice, G795A xMGs (IBA-1/Ku80/Ki67 immunohistochemistry); format: in vivo, human; conditions: 600 mg/kg of PLX3397 in rodent chow ad libitum, 4 weeks
From the text: as §6

[5] = system: MUT2 (i.e., G795C) microglia; assay: RNA-seq transcriptomic response to PLX5622, MUT2 (G795C) microglia; format: cell-based, human; conditions: 24-hour treatment, compared to DMSO-treated cells
From the text: (§7) FIGS. 2A, 2B, 2C, 2D, 2E, and 2F show selected CSF1R mutations have little effect on transcriptomic signature while simultaneously imparting resistance to PLX5622.

[6] = system: MUT1 (i.e., G795A) microglia; assay: RNA-seq transcriptomic response to PLX5622, MUT1 (G795A) microglia; format: cell-based, human; conditions: 24-hour treatment, compared to DMSO-treated cells
From the text: as §7

WT microglia = assay: RNA-seq transcriptomic response to PLX5622, WT microglia; format: cell-based, human; conditions: 24-hour treatment, compared to DMSO-treated cells
From the text: as §7

| Compound | caspase 3/7 levels (cell death / apoptosis) (G795C iPSC-microglia) | cell death (percent of live versus dead cells) [1] | caspase 3/7 levels (cell death / apoptosis) (G795A iPSC-microglia [2]) | caspase 3/7 levels (cell death / apoptosis) [3] | cell death (percent of live versus dead cells) (G795A iPSC-microglia [4]) | survival of transplanted human xMGs in mouse brain (wild-type human xMGs) | survival / expansion of transplanted human xMGs in mouse brain (G795A xMGs) | transcriptomic alterations (FDR≤0.05; log2(FC)≥±1) [5] | transcriptomic alterations (FDR≤0.05; log2(FC)≥±1) [6] | transcriptomic alterations (FDR≤0.05; log2(FC)≥±1) (WT microglia) |
| --- | --- | --- | --- | --- | --- | --- | --- | --- | --- | --- |
| CNC(=O)c1cc(Oc2ccc3nc(N[C@@H]4CCCC[C@H]4O)sc3c2)ccn1 [BLZ945] | no significant increase in caspase levels | substantial cell death | no significant increase in caspase levels | significant levels of increased caspase | little-to-no cell death |  |  |  |  |  |
| CC1(C)CC=C(c2nc(C3CC(C)(C)OC(C)(C)C3)ccc2NC(=O)c2nc(C#N)c[nH]2)CC1 [Edicotinib] | no significant increase in caspase levels | substantial cell death | no significant increase in caspase levels | significant levels of increased caspase | little-to-no cell death |  |  |  |  |  |
| FC(F)(F)c1ccc(CNc2ccc(Cc3c[nH]c4ncc(Cl)cc34)cn2)cn1 [PLX3397] | complete resistance to cell death; also recorded: no significant increase in caspase levels | substantial cell death | complete resistance to cell death; also recorded: no significant increase in caspase levels | robust dose-dependent induction of apoptosis; also recorded: significant levels of increased caspase | little-to-no cell death | only a handful of wild-type human xMGs survive | proliferate and expand from the initial injection sites |  |  |  |
| COc1ncc(F)cc1CNc1ccc(Cc2c[nH]c3ncc(C)cc23)c(F)n1 [PLX5622] | complete resistance to cell death; also recorded: no significant increase in caspase levels | substantial cell death | complete resistance to cell death; also recorded: no significant increase in caspase levels | robust dose-dependent induction of apoptosis; also recorded: significant levels of increased caspase | little-to-no cell death |  |  | failed to significantly alter gene expression | failed to significantly alter gene expression | induced significant transcriptomic alterations |
